Holding throughout (assay): drug sensitivity score (DSS) (DSS score); higher = more sensitive (stronger growth inhibition); extreme values may be limits of the assay
For test [1], the system named is Ba/F3 P210-BCR-ABL1 RUNX1wt/wt control (mouse). The gist of the method: (§1)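 Each value is a drug sensitivity score derived from CellTiter-Glo luminescence scaled between vehicle and positive-control wells. Mouse Ba/F3 clones, CRISPR/Cas9-edited at a target exon or edited controls, were seeded at 10,000 cells per well in RPMI with 10% FBS and treated for 72 h at 37 °C and 5% CO2. Compounds from a 528-compound library were tested at five concentrations over a 10,000-fold range, and scores were averaged over two replicates.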

The subject of test [2] is Ba/F3 P210-BCR-ABL1 RUNX1-/- (mouse). An outline of the steps:
as §1

Test [3] has as its system Ba/F3 P210-BCR-ABL1 RUNX1-/mut (mouse). An outline of the steps:
as §1

± gives the standard deviation of the averaged measurements.

As for `COc1ccc(COc2cc3oc(=O)c4cc(C(C)O)ccc4c3cc2OC)cc1` (configuration not stated) [Palomid-529], the drug sensitivity score in test [1] worked out at 0.4 ± 0.42; in test [2] it was 0.05 ± 0.071; in test [3], 1.7 ± 2.4.

For `Nc1nc2[nH]cc(CCc3ccc(C(=O)N[C@@H](CCC(=O)O)C(=O)O)cc3)c2c(=O)[nH]1` [Pemetrexed], the values for the drug sensitivity score in test [1], in test [2] and in test [3] were 26.6 ± 0.42, 27.8 ± 1.6 and 27 ± 0.71, respectively.

As to `CCCCCCCCCCCCCCCCCCOP(=O)([O-])OC1CC[N+](C)(C)CC1` [Perifosine], the drug sensitivity score in test [1], in test [2] and in test [3] was 0 in each case.

For the molecule `NS(=O)(=O)OC[C@@H]1C[C@@H](n2ccc3c(N[C@H]4CCc5ccccc54)ncnc32)C[C@@H]1O` [Pevonedistat], the drug sensitivity score in test [1] is 7.65 ± 0.21; in test [2], 16.1 ± 2.4; in test [3] it was 15.4 ± 2.

Consider `FC(F)(F)c1ccc(CNc2ccc(Cc3c[nH]c4ncc(Cl)cc34)cn2)cn1` [Pexidartinib], for which the drug sensitivity score in test [1] was determined as 0.1 ± 0.14; in test [2], 0.05 ± 0.071; in test [3] it was 0.1 ± 0.14.

For the molecule `CC(C)N(C[C@H]1O[C@@H](n2cnc3c(N)ncnc32)[C@H](O)[C@@H]1O)[C@H]1C[C@@H](CCc2nc3cc(C(C)(C)C)ccc3[nH]2)C1` [Pinometostat], the drug sensitivity score in test [1], in test [2] and in test [3] was 0 each time.

Consider `Cc1ccc(=O)n(-c2ccccc2)c1` [Pirfenidone], for which the drug sensitivity score in test [1], in test [2] and in test [3] was 0 throughout.

As to `NCCNc1ccc(NCCN)c2c1C(=O)c1ccncc1C2=O` [Pixantrone], the drug sensitivity score in test [1] turned out to be 0; in test [2], 1.95 ± 1.3; in test [3], 2.45 ± 1.1.

In the case of `c1cc(CN2CCCNCCNCCCNCC2)ccc1CN1CCCNCCNCCCNCC1` [Plerixafor], the drug sensitivity score in test [1] was determined as 0; in test [2], 0.05 ± 0.071; in test [3], 0.05 ± 0.071.

As for `Nc1cccc2c1C(=O)N(C1CCC(=O)NC1=O)C2=O` (configuration not stated) [Pomalidomide], the drug sensitivity score in test [1], in test [2] and in test [3] was 0 in each case.

For `Cc1ccc(C(=O)Nc2ccc(CN3CCN(C)CC3)c(C(F)(F)F)c2)cc1C#Cc1cnc2cccnn12` [Ponatinib], the drug sensitivity score in test [1] came to 30.2 ± 0.57; in test [2] it was 36.2 ± 2.4; in test [3], 31.6 ± 0.28.

Turning to `C=CC(=O)N1CCC(Oc2cc3c(Nc4ccc(Cl)c(Cl)c4F)ncnc3cc2OC)CC1` [Poziotinib], the drug sensitivity score in test [1], in test [2] and in test [3] was 0 in each case.

For `CCCCc1nc2cc(/C=C/C(=O)NO)ccc2n1CCN(CC)CC` [Pracinostat], the drug sensitivity score is 17.4 ± 0.49 in test [1], 20.7 ± 0.57 in test [2] and 19.4 ± 0.35 in test [3].

Regarding `CC[C@H](C)C(=O)O[C@H]1C[C@H](O)C=C2C=C[C@H](C)[C@H](CC[C@@H](O)C[C@@H](O)CC(=O)O)[C@H]21` [Pravastatin], the drug sensitivity score in test [1] turned out to be 0.1 ± 0.14; in test [2], 0.1 ± 0.14; in test [3], 0.

For `COc1cccc(OCCCN)c1-c1cc(Nc2cnc(C#N)cn2)n[nH]1` [Prexasertib], the drug sensitivity score in test [1] was 30.4 ± 1.3; in test [2] it was 32.5 ± 2.5; in test [3], 31.4.

Turning to `Cn1cc(CNCC2CCN(c3ncc(C(=O)NO)cn3)CC2)c2ccccc21` [Quisinostat], the drug sensitivity score in test [1] is 15.3 ± 0.28; in test [2] it was 21.6 ± 1.3; in test [3] it was 17.95 ± 0.071.

Regarding `Nc1cc(F)ccc1NC(=O)/C=C/c1cnn(C/C=C/c2ccccc2)c1` [RGFP966], the drug sensitivity score was found to be 1.3 ± 0.28 in test [1], 4.8 ± 1.1 in test [2] and 4.25 ± 0.78 in test [3].

Consider `COC(=O)c1ccc([C@H]2c3[nH]c4ccccc4c3C[C@H](C(=O)OC)N2C(=O)CCl)cc1` [RSL3], for which the drug sensitivity score in test [1] turned out to be 0; in test [2] it was 0; in test [3] it was 0.3 ± 0.42.

In the case of `Cc1cnc(NC(=O)Nc2cc(Br)c(C)cc2OC[C@@H]2CNCCO2)cn1` [Rabusertib], the drug sensitivity score in test [1] was 0.45 ± 0.49; in test [2], 3.25 ± 1.6; in test [3] it was 3.3 ± 0.14.

As to `Cc1cn(-c2cc(NC(=O)c3ccc(C)c(Nc4nccc(-c5cnccn5)n4)c3)cc(C(F)(F)F)c2)cn1` [Radotinib], the drug sensitivity score in test [1] was 27.9 ± 0.14; in test [2] it was 28.9 ± 8.2; in test [3], 30.9 ± 0.64.

With `CC(C)(C)Cn1c(N)nc2ccc(-c3[nH]c(C(C)(C)C)nc3-c3ccc(F)cc3)nc21` [Ralimetinib], the drug sensitivity score was found to be 0.7 ± 0.99 in test [1], 9.6 ± 3.2 in test [2] and 8 ± 4.2 in test [3].

In the case of `O=C(c1ccc(OCCN2CCCCC2)cc1)c1c(-c2ccc(O)cc2)sc2cc(O)ccc12` [Raloxifene], the drug sensitivity score in test [1] was determined as 3.7 ± 1.8; in test [2] it was 5.4 ± 2.3; in test [3], 5.05 ± 3.3.

For the molecule `Cc1nc(=O)c2cc(CN(C)c3ccc(C(=O)N[C@@H](CCC(=O)O)C(=O)O)s3)ccc2[nH]1` [Raltitrexed], the drug sensitivity score in test [1] is 17.4 ± 0.57; in test [2] it was 23.4 ± 2.2; in test [3], 20.3 ± 0.28.

As for `Cn1nccc1Nc1nccc(-c2ccn([C@H](CO)c3ccc(Cl)c(F)c3)c(=O)c2)n1` [Ravoxertinib], the drug sensitivity score is 0.05 ± 0.071 in test [1], 2.75 ± 2.6 in test [2] and 1.3 ± 1.8 in test [3].

Consider `CCOC(=O)C1=CCCC[C@H]1S(=O)(=O)Nc1ccc(F)cc1Cl` [Resatorvid], for which the drug sensitivity score in test [1], in test [2] and in test [3] was 0 throughout.

`CCOCc1nc2c(N)nc3ccccc3c2n1CC(C)(C)O` [Resiquimod]: the drug sensitivity score in test [1] was 0.15 ± 0.21; in test [2], 3.6; in test [3], 3.6 ± 5.1.

Turning to `CN(C)Cc1ccc(S(=O)(=O)n2ccc(/C=C/C(=O)NO)c2)cc1` [Resminostat], the drug sensitivity score in test [1] came to 13.1 ± 0.57; in test [2] it was 15.8 ± 0.78; in test [3], 15.2 ± 0.92.

Regarding `CN(C)C(=O)c1cc2cnc(Nc3ccc(N4CCNCC4)cn3)nc2n1C1CCCC1` [Ribociclib], the drug sensitivity score was determined as 0 in test [1], 4.6 ± 2.3 in test [2] and 1.85 ± 2.5 in test [3].

On to `CO[C@H]1C[C@@H]2CC[C@@H](C)[C@@](O)(O2)C(=O)C(=O)N2CCCC[C@H]2C(=O)O[C@H]([C@H](C)C[C@@H]2CC[C@@H](OP(C)(C)=O)[C@H](OC)C2)CC(=O)[C@H](C)/C=C(\C)[C@@H](O)[C@@H](OC)C(=O)[C@H](C)C[C@H](C)/C=C/C=C/C=C/1C` [Ridaforolimus], for which the values for the drug sensitivity score in test [1], in test [2] and in test [3] were 0.15 ± 0.21, 13.3 ± 3.8 and 15.7 ± 2.7, respectively.

On to `COc1cc(OC)c(/C=C/S(=O)(=O)Cc2ccc(OC)c(NCC(=O)O)c2)c(OC)c1` [Rigosertib], for which the drug sensitivity score in test [1] came to 15.6 ± 1.4; in test [2], 26.8 ± 1.1; in test [3], 27.05 ± 0.071.

Regarding `C[C@H]1CNCCCN1S(=O)(=O)c1cccc2cncc(F)c12` [Ripasudil], the drug sensitivity score in test [1], in test [2] and in test [3] was 0 each time.

As for `C=CC(=O)Nc1cccc(Nc2nc(Nc3ccc(N4CCN(C(C)=O)CC4)cc3OC)ncc2C(F)(F)F)c1` [Rociletinib], the drug sensitivity score in test [1] is 4.4 ± 0.42; in test [2], 8.6 ± 1.6; in test [3], 7.45 ± 0.071.

Take `O=C(CCCCCCNC(=O)c1cnc(N(c2ccccc2)c2ccccc2)nc1)NO` [Rocilinostat]: the drug sensitivity score in test [1] came out at 6.25 ± 0.071; in test [2], 10.2 ± 1.5; in test [3], 9.05 ± 2.2.

Take `C/C=C1\NC(=O)[C@H]2CSSCC/C=C/[C@H](CC(=O)N[C@H](C(C)C)C(=O)N2)OC(=O)[C@H](C(C)C)NC1=O` [Romidepsin]: the values for the drug sensitivity score in test [1], in test [2] and in test [3] were 29.4 ± 0.42, 29.85 ± 0.071 and 27.6 ± 2.7, respectively.

Regarding `Cc1nc(C(=O)NCC(=O)O)c(O)c2ccc(Oc3ccccc3)cc12` [Roxadustat], the drug sensitivity score in test [1] came to 0; in test [2], 0.6 ± 0.85; in test [3] it was 0.95 ± 1.3.

For the molecule `CN(C)C[C@@H]1CCn2cc(c3ccccc32)C2=C(C(=O)NC2=O)c2cn(c3ccccc23)CCO1` [Ruboxistaurin], the results for the drug sensitivity score in test [1], in test [2] and in test [3] were 7.7 ± 0.99, 9.7 ± 0.28 and 9.25 ± 2.2, respectively.

In the case of `N#CC[C@H](C1CCCC1)n1cc(-c2ncnc3[nH]ccc23)cn1` [Ruxolitinib], the drug sensitivity score was 0 in test [1], 2.2 ± 0.71 in test [2] and 1.45 ± 2 in test [3].

On to `CC(C)N(CCCNC(=O)Nc1ccc(C(C)(C)C)cc1)C[C@H]1O[C@@H](n2cc(Br)c3c(N)ncnc32)[C@H](O)[C@@H]1O` [SGC0946], for which the drug sensitivity score in test [1] turned out to be 0; in test [2] it was 3.45 ± 2.3; in test [3], 3.7 ± 5.2.

`COc1ccc(CCc2nc3cc(-c4c(C)noc4C)ccc3n2C[C@H](C)N2CCOCC2)cc1Cl` [SGC-CBP30]: the values for the drug sensitivity score in test [1], in test [2] and in test [3] were 5.5 ± 0.28, 10.2 ± 2.8 and 12.7 ± 4.6, respectively.

Values taken from the supplement of paper PMC8024199.
